Measurements as given in patent publication US20210032253A1, “PYRAZOLO[1,5-A][1,3,5]TRIAZINE-2-AMINE DERIVATIVE, PREPARATION METHOD THEREFOR AND MEDICAL USE THEREOF” (JIANGSU HENGRUI MEDICINE CO., LTD., priority 2018, published 2021).

Molecular target: T1, adenosine A3 receptor (A3R) (Homo sapiens, UniProt P0DMS8)
T1 construct: expressed in transfected cells; host or cells: CHO-K1
T1 sequence (P0DMS8 1-318): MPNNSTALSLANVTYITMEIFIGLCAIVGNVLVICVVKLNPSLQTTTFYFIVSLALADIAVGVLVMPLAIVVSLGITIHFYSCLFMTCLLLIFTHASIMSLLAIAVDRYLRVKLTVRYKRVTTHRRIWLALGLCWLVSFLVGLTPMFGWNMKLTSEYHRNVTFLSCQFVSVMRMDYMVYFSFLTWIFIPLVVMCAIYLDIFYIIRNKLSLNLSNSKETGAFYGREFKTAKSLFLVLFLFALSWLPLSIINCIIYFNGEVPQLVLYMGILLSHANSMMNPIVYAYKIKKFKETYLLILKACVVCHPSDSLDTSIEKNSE
Experiment: Inhibition of adenosine A3 receptor cAMP signaling pathway in CHO-K1/A3R cells (HTRF cAMP dynamic 2 kit)
Format: cell-based
Conditions: Table 3; for IC50: CHO-K1/A3R cells, cAMP, 10 μM forskolin, 5 nM 2Cl-IB-MECA; for IC50 ratio (A3R/A2aR): selectivity A3R over A2aR
Method in brief: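 CHO-K1 cells expressing A3R, in HBSS/HEPES/BSA with rolipram and adenosine deaminase, were preincubated 30 min with compound (0.1–100000 nM final). They were then stimulated 30 min with 10 μM forskolin plus 5 nM 2Cl-IB-MECA at room temperature. cAMP read by HTRF and IC50 calculated.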

For `Cc1ccc(-c2nc(N)nc3c(Cc4cccc(CO[C@H]5CCOC5)n4)cnn23)o1` [Example 1, (S)-4-(5-Methylfuran-2-yl)-8-((6-(((tetrahydrofuran-3-yl)oxy)methyl)pyridin-2-yl)methyl)pyrazolo[1,5-a][1,3,5]triazin-2-amine], the IC50 was 2060 nM and the “IC50 ratio (A3R/A2aR)” value was >10^3.

`Cc1ccc(-c2nc(N)nc3c(Nc4cccc(CO[C@H]5CCOC5)n4)cnn23)o1` [Example 18, (S)-4-(5-Methylfuran-2-yl)-N^8-(6-(((tetrahydrofuran-3-yl)oxy)methyl)pyridin-2-yl)pyrazolo[1,5-a][1,3,5]triazine-2,8-diamine] was tested, and the IC50 was 2200 nM and the “IC50 ratio (A3R/A2aR)” value was >10^3.

For `Cc1ccc(-c2nc(N)nc3c(Oc4cccc(CO[C@H]5CCOC5)n4)cnn23)o1` [Example 19, (S)-4-(5-Methylfuran-2-yl)-8-((6-(((tetrahydrofuran-3-yl)oxy)methyl)pyridin-2-yl)oxy)pyrazolo[1,5-a][1,3,5]triazin-2-amine], the IC50 was 4790 nM and the “IC50 ratio (A3R/A2aR)” value was >10^3.
